Where only a bound is given, the exact number is not on record here.

The target in this assay is T1, recombinant human 11 β-HSD1 (Homo sapiens, UniProt P28845).
T1 construct: made in house; host or cells: E. coli
T1 sequence (P28845 whole entry): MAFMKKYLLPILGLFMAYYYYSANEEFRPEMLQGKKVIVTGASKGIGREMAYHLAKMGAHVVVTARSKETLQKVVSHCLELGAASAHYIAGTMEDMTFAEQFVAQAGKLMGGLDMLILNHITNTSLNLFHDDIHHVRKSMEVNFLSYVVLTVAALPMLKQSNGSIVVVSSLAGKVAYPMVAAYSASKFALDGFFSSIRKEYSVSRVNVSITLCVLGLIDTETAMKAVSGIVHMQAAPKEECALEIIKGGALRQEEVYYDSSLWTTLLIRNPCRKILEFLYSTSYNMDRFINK
As to the kind of experiment: 11 β-HSD1 SPA Assay (Scintillation Proximity Assay). Type of assay: biochemical. Put shortly: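 E. coli-expressed human enzyme (30-100 nM) with tritiated cortisone 40 nM and NADPH 1 mM in HEPES buffer pH7.4, 2 hours at room temperature. Stopped with protein A SPA beads carrying anti-cortisol antibody and glycyrrhetinic acid; counted after overnight incubation. IC50 from percent inhibition between no-enzyme and no-compound signals.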
`CC(C)(Oc1ccc(Cl)cc1C(F)(F)F)C(=O)N[C@H]1C[C@H]2CC[C@@H](C1)N2c1ccc(C(=O)NCC(F)F)cn1` [Example 343, 6-[3-endo-({2-[4-chloro-2-(trifluoromethyl)phenoxy]-2-methylpropanoyl}amino)-8-azabicyclo[3.2.1]oct-8-yl]-N-(2,2-difluoroethyl)pyridine-3-carboxamide]: the IC50 was under 0.2 µM. For `CC(C)(Oc1ccc(F)c(Cl)c1Cl)C(=O)N[C@H]1C[C@H]2CC[C@@H](C1)N2c1ccc(C(N)=O)cn1` [Example 97, 6-[3-endo-({2-[(2,3-dichloro-4-fluorophenyl)oxy]-2-methylpropanoyl}amino)-8-azabicyclo[3.2.1]oct-8-yl]pyridine-3-carboxamide], the IC50 is under 0.2 µM. For the compound `CC(C)(Oc1ccccc1S(C)(=O)=O)C(=O)N[C@H]1C[C@H]2CC[C@@H](C1)N2c1ccc(C(N)=O)cn1` [Example 326, 6-{3-endo-[(2-methyl-2-{[2-(methylsulfonyl)phenyl]oxy}propanoyl)amino]-8-azabicyclo[3.2.1]oct-8-yl}pyridine-3-carboxamide], the IC50 was under 0.2 µM.

As to `CC(C)(Oc1cc(Cl)c(CO)cc1Cl)C(=O)N[C@H]1C[C@H]2CC[C@@H](C1)N2c1ccc(C(=O)NCC(F)F)cn1` [Example 464, 6-[3-endo-({2-[2,5-dichloro-4-(hydroxymethyl)phenoxy]-2-methylpropanoyl}amino)-8-azabicyclo[3.2.1]oct-8-yl]-N-(2,2-difluoroethyl)pyridine-3-carboxamide], the IC50 was under 0.2 µM. `CC(C)(C(=O)N[C@H]1C[C@H]2CC[C@@H](C1)N2c1ccc(S(C)(=O)=O)cn1)S(=O)(=O)c1ccc(Cl)cc1Cl` [Example 308, 2-[(2,4-dichlorophenyl)sulfonyl]-2-methyl-N-{8-[5-(methylsulfonyl)pyridin-2-yl]-8-azabicyclo[3.2.1]oct-3-endo-yl}propanamide]: the IC50 was under 2 µM. As for `CC(C)(Oc1c(F)cc(F)cc1F)C(=O)N[C@H]1C[C@H]2CC[C@@H](C1)N2c1ccc(S(C)(=O)=O)cn1` [Example 258, 2-methyl-N-{8-[5-(methylsulfonyl)pyridin-2-yl]-8-azabicyclo[3.2.1]oct-3-endo-yl}-2-[(2,4,6-trifluorophenyl)oxy]propanamide], the figure is under 0.2 µM.

Take `CC(C)(Oc1ccc(Cl)cc1Cl)C(=O)N[C@H]1C[C@H]2CC[C@@H](C1)N2c1ccc(C#N)cn1` [Example 55, N-[8-(5-cyanopyridin-2-yl)-8-azabicyclo[3.2.1]oct-3-endo-yl]-2-[(2,4-dichlorophenyl)oxy]-2-methylpropanamide]: the IC50 was under 0.2 µM. Consider `CC(C)(Oc1ccc(Cl)cc1Cl)C(=O)N[C@H]1C[C@H]2CC[C@@H](C1)N2c1ccc(C(=O)NC2CC2)nc1` [Example 163, N-cyclopropyl-5-[3-endo-({2-[(2,4-dichlorophenyl)oxy]-2-methylpropanoyl}amino)-8-azabicyclo[3.2.1]oct-8-yl]pyridine-2-carboxamide], for which the IC50 is under 0.2 µM. In the case of `CC(C)(Oc1ccc(Cl)cc1OC(F)(F)F)C(=O)NC1CC2CCC(C1)N2c1ccc(C(=O)NCC(O)C(F)(F)F)cn1` (stereo not drawn) [Example 448, 6-[3-endo-({2-[4-chloro-2-(trifluoromethoxy)phenoxy]-2-methylpropanoyl}amino)-8-azabicyclo[3.2.1]oct-8-yl]-N-(3,3,3-trifluoro-2-hydroxypropyl)pyridine-3-carboxamide], the IC50 is under 0.2 µM. In the case of `CCC(Oc1ccc(Cl)cc1)C(=O)N[C@H]1C[C@H]2CC[C@@H](C1)N2c1ccc(C(=O)NCCOC)cn1` (stereo partly drawn) [Example 81, 6-[3-endo-({2-[(4-chlorophenyl)oxy]butanoyl}amino)-8-azabicyclo[3.2.1]oct-8-yl]-N-[2-(methyloxy)ethyl]pyridine-3-carboxamide], the IC50 was under 2 µM. On to `O=C(NC1CC1)c1ccc(N2[C@@H]3CC[C@H]2C[C@@H](NC(=O)C2(Oc4ccccc4)CC2)C3)nc1` [Example 45, N-cyclopropyl-6-[3-endo-({[1-(phenyloxy)cyclopropyl]carbonyl}amino)-8-azabicyclo[3.2.1]oct-8-yl]pyridine-3-carboxamide], for which the IC50 is under 0.2 µM. As for `CC(C)(Oc1ccc(Cl)cc1Cl)C(=O)N[C@H]1C[C@H]2CC[C@@H](C1)N2c1ccc(C(=O)O)cn1` [Example 287, 6-[3-endo-({2-[(2,4-dichlorophenyl)oxy]-2-methylpropanoyl}amino)-8-azabicyclo[3.2.1]oct-8-yl]pyridine-3-carboxylic acid], the figure is under 0.2 µM.

For the compound `Cc1cc(F)ccc1OC(C)(C)C(=O)N[C@H]1C[C@H]2CC[C@@H](C1)N2c1ccc(S(C)(=O)=O)cc1` [Example 219, 2-[(4-fluoro-2-methylphenyl)oxy]-2-methyl-N-{8-[4-(methylsulfonyl)phenyl]-8-azabicyclo[3.2.1]oct-3-endo-yl}propanamide], the IC50 is under 0.2 µM. In the case of `CC(C)(COc1ccc(Cl)cc1C(F)(F)F)C(=O)N[C@H]1C[C@H]2CC[C@@H](C1)N2c1ccc(C(=O)NCC(F)(F)F)cn1` [Example 312, 6-{3-endo-[(3-{[4-chloro-2-(trifluoromethyl)phenyl]oxy}-2,2-dimethylpropanoyl)amino]-8-azabicyclo[3.2.1]oct-8-yl}-N-(2,2,2-trifluoroethyl)pyridine-3-carboxamide], the IC50 was under 0.2 µM. Turning to `CC(C)(Oc1ccccc1C(F)(F)F)C(=O)N[C@H]1C[C@H]2CC[C@@H](C1)N2c1ccc(C(=O)NC2CC2)cn1` [Example 113, N-cyclopropyl-6-{3-endo-[(2-methyl-2-{[2-(trifluoromethyl)phenyl]oxy}propanoyl)amino]-8-azabicyclo[3.2.1]oct-8-yl}pyridine-3-carboxamide], the IC50 is under 0.2 µM. `CC(C)(Oc1ccc(Cl)cc1C(F)(F)F)C(=O)N[C@H]1C[C@H]2CC[C@@H](C1)N2c1ccc(C(N)=O)cn1` [Example 169, 6-{3-endo-[(2-{[4-chloro-2-(trifluoromethyl)phenyl]oxy}-2-methylpropanoyl)amino]-8-azabicyclo[3.2.1]oct-8-yl}pyridine-3-carboxamide]: the IC50 was under 0.2 µM. As for `COc1ccc(OC(C)(C)C(=O)N[C@H]2C[C@H]3CC[C@@H](C2)N3c2ccc(S(C)(=O)=O)cc2)c(Cl)c1` [Example 254, 2-{[2-chloro-4-(methyloxy)phenyl]oxy}-2-methyl-N-{8-[4-(methylsulfonyl)phenyl]-8-azabicyclo[3.2.1]oct-3-endo-yl}propanamide], the figure is under 0.2 µM; as for `CC(C)(Oc1ncc(Cl)cc1Cl)C(=O)N[C@H]1C[C@H]2CC[C@@H](C1)N2c1ccc(C(=O)NCC(F)F)cn1` [Example 408, 6-(3-endo-(2-(3,5-dichloropyridin-2-yloxy)-2-methylpropanamido)-8-azabicyclo[3.2.1]octan-8-yl)-N-(2,2-difluoroethyl)nicotinamide], under 0.2 µM. The value for `CC(C)(Oc1ccc(Cl)cc1F)C(=O)N[C@H]1C[C@H]2CC[C@@H](C1)N2c1ccc(S(C)(=O)=O)cc1` [Example 223, 2-[(4-chloro-2-fluorophenyl)oxy]-2-methyl-N-{8-[4-(methylsulfonyl)phenyl]-8-azabicyclo[3.2.1]oct-3-endo-yl}propanamide] was under 0.2 µM; that for `CC(C)(Oc1cc(OCCO)c(Cl)cc1Cl)C(=O)N[C@H]1C[C@H]2CC[C@@H](C1)N2c1ccc(C(=O)NCC(F)F)cn1` [Example 402, 6-(3-endo-(2-(2,4-dichloro-5-(2-hydroxyethoxy)phenoxy)-2-methylpropanamido)-8-azabicyclo[3.2.1]octan-8-yl)-N-(2,2-difluoroethyl)nicotinamide] was under 0.2 µM. Consider `CC(C)(Oc1ccc(Cl)cc1Cl)C(=O)N[C@H]1C[C@H]2CC[C@@H](C1)N2Cc1cccc(C(N)=O)c1` [Example 291, 3-{[3-endo-({2-[(2,4-dichlorophenyl)oxy]-2-methylpropanoyl}amino)-8-azabicyclo[3.2.1]oct-8-yl]methyl}benzamide], for which the IC50 is under 2 µM. In the case of `CC(C)NC(=O)c1ccc(N2[C@@H]3CC[C@H]2C[C@@H](NC(=O)C(C)(C)Oc2cc(C(C)(C)O)c(Cl)cc2Cl)C3)nc1` [Example 477, 6-[3-endo-({2-[2,4-dichloro-5-(2-hydroxypropan-2-yl)phenoxy]-2-methylpropanoyl}amino)-8-azabicyclo[3.2.1]oct-8-yl]-N-(propan-2-yl)pyridine-3-carboxamide], the IC50 is under 0.2 µM.

With `CC(C)(Oc1ccc(Cl)cc1Cl)C(=O)N[C@H]1C[C@H]2CC[C@@H](C1)N2c1ccc(C(=O)NCC(F)(F)F)cc1Cl` [Example 117, 3-chloro-4-[3-endo-({2-[(2,4-dichlorophenyl)oxy]-2-methylpropanoyl}amino)-8-azabicyclo[3.2.1]oct-8-yl]-N-(2,2,2-trifluoroethyl)benzamide], the IC50 was under 0.2 µM. With `CC(C)(Oc1ccc(Cl)cc1)C(=O)N[C@H]1C[C@H]2CC[C@@H](C1)N2c1ncc(C(=O)NC2CC2)cn1` [Example 36, 2-[3-endo-({2-[(4-chlorophenyl)oxy]-2-methylpropanoyl}amino)-8-azabicyclo[3.2.1]oct-8-yl]-N-cyclopropylpyrimidine-5-carboxamide], the IC50 was under 0.2 µM. The value for `CC(C)(Oc1ccc(Cl)cc1Cl)C(=O)N[C@H]1C[C@H]2CC[C@@H](C1)N2c1ccc(C(=O)NC2CC2)c(F)c1` [Example 130, N-cyclopropyl-4-[3-endo-({2-[(2,4-dichlorophenyl)oxy]-2-methylpropanoyl}amino)-8-azabicyclo[3.2.1]oct-8-yl]-2-fluorobenzamide] was under 0.2 µM. Turning to `CC(C)(Oc1ncc(Cl)cc1F)C(=O)N[C@H]1C[C@H]2CC[C@@H](C1)N2c1ccc(S(C)(=O)=O)cn1` [Example 194, 2-[(5-chloro-3-fluoropyridin-2-yl)oxy]-2-methyl-N-{8-[5-(methylsulfonyl)pyridin-2-yl]-8-azabicyclo[3.2.1]oct-3-endo-yl}propanamide], the IC50 was under 2 µM.

Regarding `CC(C)(Oc1ccc(Cl)cc1C1CCCCC1)C(=O)N[C@H]1C[C@H]2CC[C@@H](C1)N2c1ccc(C(N)=O)cn1` [Example 285, 6-[3-endo-({2-[(4-chloro-2-cyclohexylphenyl)oxy]-2-methylpropanoyl}amino)-8-azabicyclo[3.2.1]oct-8-yl]pyridine-3-carboxamide], the IC50 is under 0.2 µM.

The term IC50 denotes the concentration that gives 50% inhibition.
